# Experimental data from article PMC6222672, “Pharmacokinetic and Metabolism Studies of 12-Riboside-Pseudoginsengenin DQ by UPLC-MS/MS and UPLC-QTOF-MS^E” (Molecules : A Journal of Synthetic Chemistry and Natural …, 2018).
# Read-outs that look alike come from different tables or passages of the source.
# Experiments:
# [1] = cited from earlier work
# [2] = Metabolite identification in rat plasma, bile, urine and feces by UPLC-QTOF-MSE; type: in vivo; conditions: rats, RPDQ 48 mg/kg i.g.
# Experimental: For a metabolism study, RPDQ (48 mg/kg, i.g.) was administered to obtain a high concentration of metabolites. […] The pooled plasma sample (500 μL) was then added with methanol (2 mL) to vortex and precipitate proteins. Subsequently, the mixtures were centrifuged (10,000 rpm, 4 °C, 10 min) to obtain the supernatant, which was then evaporated by N2 to obtain the residue. Methanol (100 μL) was used to reconstitute the residue. In order to obtain bile samples, rats were anaesthetized with urethane (1.0 g/kg, intraperitoneal injection). After making an abdominal incision, the bile was collecting by surgically inserting a plastic cannula into the bile ducts. Prior to administration, blank bile was collected for 2 h. After administration, bile samples were collected for 12 h. By using metabolism cages, blank and dosed urine and feces samples were also collected prior to administration or 24 h after administration. After diluting each urine or bile sample (300 μL) with 1 mL of methanol, the mixture was centrifuged (10,000 rpm, 4 °C, 10 min) to obtain the supernatant, which was then evaporated by N2 to obtain the dried urine or bile residue. Methanol (50 μL) was then used to dissolve each residue. After centrifuging (10,000 rpm, 4 °C, 10 min), the clear supernatants were used for the analysis. […] Metabolic characterization of RPDQ was analyzed using UNIFI 1.7.0 software (Waters, Manchester, UK).
# [3] = type: in vitro ADME; conditions: rat, 100 ng/mL
# Experimental: RPDQ and 20R-panaxadiol stock methanol solutions (1.00 mg/mL) were all prepared with the reference compounds, respectively. Firstly, blank rat plasma was prepared. The blood samples were collected immediately from the abdominal aorta and incubated at 37 °C for 30 min. The plasma was separated by centrifugation at 4000 rpm for 15 min, and was frozen at −20 °C until analysis. By spiking the dilute solutions with blank rat plasma, calibration curves were plotted to produce the points equivalent to 5, 10, 25, 50, 100, 300, 500, and 1000 ng/mL for RPDQ. […] All the QC and calibration standards samples were prepared freshly before analysis. The specificity, linearity, LLOQ, precision and accuracy, extraction recovery, matrix effect, diluted reliability, and stability of the method were validated by following a non-clinical drug pharmacokinetic study technical guideline (China Food And Drug Administration 2014) and the Bioanalytical Method Validation Guideline (Chinese Pharmacopoeia 2015, Vol. 4). Specificity was assessed by comparing blank plasma samples, plasma was spiked with RPDQ and 20R-panaxadiol, and plasma samples were collected after administration. Linearity was analyzed through weighted regression (1/x^2) of peak area ratios (y) of RPDQ to 20R-panaxadiol versus nominal concentration (x) in plasma. […] The intra- and inter-day precision and accuracy were evaluated with the analysis of six replicate QC samples on three consecutive days, respectively. The extraction recovery and matrix effect at three QC concentrations were assayed. By comparing peak areas of RPDQ and 20R-panaxadiol in extracted QC samples with those in post-extracted blank plasma samples, the recoveries were calculated. Moreover, by comparing the peak area of samples spiked after extraction with that of the neat solution’s equivalent concentration, the matrix effect was then evaluated. Stability was evaluated by analyzing replicate QC samples, which were stored at −20 °C for two weeks at room temperature for 4 h, and experienced three freeze/thaw cycles (from −20 °C to room temperature) on consecutive days. The stabilities of RPDQ in stock solutions at 15 °C and stored in plastic autosampler vials for 16 h at 10 °C were also assessed. Five-fold higher concentrations of QC were achieved by adding moderate RPDQ to blank plasma. The samples were then diluted and analyzed with undiluted calibration standards. The accuracy and precision were within acceptable limits (± 15%).
# [4] = after intragastric administration
compound,measurement,setting,value
CC(C)=CCC[C@](C)(O)[C@H]1CC[C@]2(C)[C@@H]1[C@H](O)C[C@@H]1[C@@]3(C)CC[C@H](O)C(C)(C)[C@@H]3[C@@H](O[C@@H]3O[C@H](CO)[C@@H](O)[C@H](O)[C@H]3O)C[C@]12C [Rh1],bioavailability,[1]; [4],1.01%
same,t1/2,[1]; [4],25.8 min
CC(C)=CCCC(C)(O)C1CCC2(C)C1C(O)CC1C3(C)CCC(O)C(C)(C)C3CCC12C (stereo not shown) [protopanaxdiol],bioavailability (F),"[1]; rat, in vivo, po",36.8%
same,elimination half-life (t1/2),"[1]; rat, in vivo, po",88.8 min
CC(C)=CCC[C@](C)(O[C@@H]1O[C@H](CO[C@@H]2OC[C@H](O)[C@H](O)[C@H]2O)[C@@H](O)[C@H](O)[C@H]1O)[C@H]1CC[C@]2(C)[C@@H]1[C@H](O)C[C@@H]1[C@@]3(C)CC[C@H](O[C@@H]4O[C@H](CO)[C@@H](O)[C@H](O)[C@H]4O[C@@H]4O[C@H](CO)[C@@H](O)[C@H](O)[C@H]4O)C(C)(C)[C@@H]3CC[C@]12C [Rb2],bioavailability,[1]; [4],0.08%
same,biological half time (t1/2),[1]; [4],23.1 h
CC(C)=CCC[C@](C)(O[C@@H]1O[C@H](CO[C@@H]2OC[C@@H](O)[C@H](O)[C@H]2O)[C@@H](O)[C@H](O)[C@H]1O)[C@H]1CC[C@]2(C)[C@@H]1[C@H](O)C[C@@H]1[C@@]3(C)CC[C@H](O[C@@H]4O[C@H](CO)[C@@H](O)[C@H](O)[C@H]4O[C@@H]4O[C@H](CO)[C@@H](O)[C@H](O)[C@H]4O)C(C)(C)[C@@H]3CC[C@]12C [Rb3],bioavailability,[1]; [4],0.52%
same,biological half time (t1/2),[1]; [4],21.1 h
"CC(C)=CCC[C@](C)(O[C@@H]1O[C@H](CO[C@@H]2O[C@H](CO)[C@@H](O)[C@H](O)[C@H]2O)[C@@H](O)[C@H](O)[C@H]1O)[C@H]1CC[C@]2(C)[C@@H]1[C@H](O)C[C@@H]1[C@@]3(C)CC[C@H](O[C@@H]4O[C@H](CO)[C@@H](O)[C@H](O)[C@H]4O[C@@H]4O[C@H](CO)[C@@H](O)[C@H](O)[C@H]4O)C(C)(C)[C@@H]3CC[C@]12C [Rb1, Ginsenosides Rb1]",bioavailability,[1]; [4],0.78%
same,biological half time (t1/2),[1]; [4],9.8 h
CC1(C)C(O)CCC2(C)C1CCC1(C)C2CC(O)C2C([C@]3(C)CC[C@@H](C(C)(C)O)O3)CC[C@]21C (stereo partly shown) [pseudoginsengenin DQ],"Source (samples in which detected: plasma, bile, feces, urine)",[2],"P,B, F,U"
same,biological half time (t1/2),[1]; [4],5.97 h
"CC(C)=CCC[C@](C)(O[C@@H]1O[C@H](CO)[C@@H](O)[C@H](O)[C@H]1O)[C@H]1CC[C@]2(C)[C@@H]1[C@H](O)C[C@@H]1[C@@]3(C)CC[C@H](O)C(C)(C)[C@@H]3CC[C@]12C [CK, Ginsenoside CK]",bioavailability,[1]; [4],4.30%
CC(C)=CCC[C@](C)(O[C@@H]1O[C@H](CO)[C@@H](O)[C@H](O)[C@H]1O)[C@H]1CC[C@]2(C)[C@@H]1[C@H](O)C[C@@H]1[C@@]3(C)CC[C@H](O)C(C)(C)[C@@H]3[C@@H](O[C@@H]3O[C@H](CO)[C@@H](O)[C@H](O)[C@H]3O)C[C@]12C [Rg1],bioavailability,[1]; [4],1.33%
"CC1(C)CCCC(C)(C2CC[C@]3(C)C2C(O)CC2C4(C)CCC(O)C(C)(C)C4CCC23C)O1 (stereo partly drawn) [IS, 20R-panaxadiol, reference compound]",Mean concentration,[3],94.11 ± 3.47 ng/mL
same,Accuracy,[3]; 3 freeze-thaw cycles,−5.89%
same,Accuracy,[3]; 4 h,−7.66%
same,Mean concentration,[3]; 4 h,92.34 ± 3.12 ng/mL
same,Accuracy,[3]; 16 h,−8.66%
same,Mean concentration,[3]; 16 h,91.34 ± 2.31 ng/mL
same,Accuracy,[3]; 14 d,−5.26%
same,Mean concentration,[3]; 14 d,94.74 ± 4.25 ng/mL
